Experimental data as given in US4874600A, “No-carrier-added [1^11 c]putrescine” (The United States of America as Represented by the United …, priority 1986, dated 1989).

Columns and labels:
in vivo = details: mouse
Description: Male Swiss albino mice (BNL strain, 20-32 g) were used in this study. No-carrier-added [1-^11 C]putrescine (0.05-0.20 μCi/mouse of specific activity greater than 1.4 Ci/μmol; 36-140 pmol/mouse) was injected by tail vein into mice and the animals were killed by cervical dislocation at the desired time interval (5, 30 and 60 minutes). The various organs were rapidly removed, blotted free of blood and placed in preweighed counting vials and the vials were sealed. Tissue samples as well as injection standards were counted in a Packard automated sodium iodide well counter. Both percent injected dose per gram of tissue and percent injected dose per organ were determined from the decay corrected activity.

transplanted rat glioma = details: Volkow et al. 1983, cited from earlier work

SMILES: NCCC[11CH2]N [no-carrier-added [1-^11 C]putrescine, [1-^11 C]putrescine]
- accumulation of activity in normal brain compared with other tissues (in words) (in vivo): less in the normal brain than for other tissues
- tissues of main uptake (in words) (in vivo): taken up by the liver, kidneys, and small intestine
- tissue uptake at 5 min (in vivo; iv): 1.37 ± 0.18 %ID/g
- tissue uptake at 0.5 h (in vivo; iv): 0.82 ± 0.11 %ID/g
- tissue uptake at 1 h (in vivo; iv): 0.76 ± 0.46 %ID/g
- Tissue distribution, Brain (in vivo; iv, 5 min): 0.12 ± 0.01 % Dose/Organ
- Tissue distribution, Heart (in vivo; iv, 5 min): 0.19 ± 0.04 % Dose/Organ
- Tissue distribution, Kidney (in vivo; iv, 5 min): 10.5 ± 2.0 % Dose/Organ
- Tissue distribution, Liver (in vivo; iv, 5 min): 5.96 ± 1.2 % Dose/Organ
- Tissue distribution, Lungs (in vivo; iv, 5 min): 0.57 ± 0.08 % Dose/Organ
- Tissue distribution, Small Intestine (in vivo; iv, 5 min): 13.7 ± 5.0 % Dose/Organ
- Tissue distribution, Spleen (in vivo; iv, 5 min): 0.57 ± 0.35 % Dose/Organ
- Tissue distribution, Brain (in vivo; iv, 30 min): 0.15 ± 0.01 % Dose/Organ
- Tissue distribution, Heart (in vivo; iv, 30 min): 0.15 ± 0.02 % Dose/Organ
- Tissue distribution, Kidney (in vivo; iv, 30 min): 2.63 ± 0.36 % Dose/Organ
- Tissue distribution, Liver (in vivo; iv, 30 min): 4.85 ± 0.75 % Dose/Organ
- Tissue distribution, Lungs (in vivo; iv, 30 min): 0.48 ± 0.08 % Dose/Organ
- Tissue distribution, Small Intestine (in vivo; iv, 30 min): 7.61 ± 2.00 % Dose/Organ
- Tissue distribution, Spleen (in vivo; iv, 30 min): 0.56 ± 0.25 % Dose/Organ
- Tissue distribution, Brain (in vivo; iv, 60 min): 0.13 ± 0.01 % Dose/Organ
- Tissue distribution, Heart (in vivo; iv, 60 min): 0.12 ± 0.01 % Dose/Organ
- Tissue distribution, Kidney (in vivo; iv, 60 min): 1.27 ± 0.21 % Dose/Organ
- Tissue distribution, Liver (in vivo; iv, 60 min): 3.70 ± 0.50 % Dose/Organ
- Tissue distribution, Lungs (in vivo; iv, 60 min): 0.43 ± 0.08 % Dose/Organ
- Tissue distribution, Small Intestine (in vivo; iv, 60 min): 4.40 ± 1.66 % Dose/Organ
- Tissue distribution, Spleen (in vivo; iv, 60 min): 0.48 ± 0.16 % Dose/Organ

SMILES: NCCCCN [putrescine]
- in vivo uptake into transplanted rat glioma relative to normal brain tissue (transplanted rat glioma; transplanted rat glioma vs normal brain tissue): 35 times greater
- metabolism to spermine by the tumor (in words) (transplanted rat glioma; transplanted rat glioma, in contrast to adjacent normal brain tissue): rapid
